Laboratory results: PubChem BioAssay (NCI)
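In this assay, cells in 96-well plates receive the compound at five concentrations for 48 hours. Endpoints are linearly interpolated between the surrounding concentrations. Here, GI50 denotes the concentration required for 50% inhibition of growth. The concentration for full growth arrest is given as TGI.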

Legend:
Assay in all cases: growth of human tumour cells (NCI), 48 h
[1] = test system: HL-60(TB) leukemia
[2] = test system: SF-268 CNS
[3] = test system: TK-10 renal
[4] = test system: SK-MEL-28 melanoma
[5] = test system: HCT-15 colon
[6] = test system: MDA-MB-231 breast
[7] = test system: MALME-3M melanoma
[8] = test system: OVCAR-8 ovarian
[9] = test system: UO-31 renal
[10] = test system: SN12C renal
[11] = test system: OVCAR-5 ovarian
[12] = test system: ACHN renal
[13] = test system: MDA-MB-435
[14] = test system: NCI-H522 lung
[15] = test system: A549 NSCLC
[16] = test system: LOX IMVI melanoma
[17] = test system: KM12 colon
[18] = test system: CAKI-1 renal
[19] = test system: SNB-75 CNS
[20] = test system: T-47D breast
[21] = test system: M14 melanoma
[22] = test system: U251 CNS
[23] = test system: OVCAR-3 ovarian
[24] = test system: RXF 393 renal
[25] = test system: SNB-19 CNS
[26] = test system: HOP-92 NSCLC
[27] = test system: OVCAR-4 ovarian
[28] = test system: HCT-116 colon
[29] = test system: HCC-2998 colon
[30] = test system: A498 renal
[31] = test system: NCI-H226 lung
[32] = test system: SK-MEL-5 melanoma
[33] = test system: NCI/ADR-RES ovarian
[34] = test system: SK-OV-3 ovarian
[35] = test system: MDA-MB-468 breast
[36] = test system: HS 578T breast
[37] = test system: SF-295 CNS
[38] = test system: SK-MEL-2 melanoma
[39] = test system: NCI-H23 lung
[40] = test system: BT-549 breast
[41] = test system: PC-3 prostate
[42] = test system: HT29 colon
[43] = test system: SF-539 CNS
[44] = test system: RPMI-8226 leukemia
[45] = test system: NCI-H460 lung
[46] = test system: UACC-257 melanoma
[47] = test system: IGROV1 ovarian
[48] = test system: MOLT-4 leukemia
[49] = test system: EKVX NSCLC
[50] = test system: MCF7 breast
[51] = test system: 786-0 renal
[52] = test system: SW-620 colon
[53] = test system: DU-145 prostate
[54] = test system: COLO 205 colon
[55] = test system: K-562 leukemia
[56] = test system: CCRF-CEM leukemia
[57] = test system: UACC-62 melanoma
[58] = test system: HOP-62 NSCLC

Which GI50 [1] does the source give for `COc1ccc(-c2cc(C(=O)N=Nc3c(O)[nH]c4ccc(Br)cc34)c3ccccc3n2)cc1` here?
Its GI50 is 24.7 µM.

What about the TGI [1] of the same compound?
Its TGI is > 100 µM.

And the GI50 [2]?
Its GI50 is 17.9 µM.

What about the TGI [2] of the same compound?
Its TGI is 48.4 µM.

What about the GI50 [3] of the same compound?
Its GI50 is 22 µM.

What about the TGI [3] of the same compound?
The TGI was 41.2 µM.

What about the GI50 [4] of the same compound?
The GI50 was 14.5 µM.

And the TGI [4]?
The TGI was 28.1 µM.

And the GI50 [5]?
The GI50 was 3.23 µM.

What about the TGI [5] of the same compound?
Its TGI is 11.9 µM.

What about the GI50 [6] of the same compound?
Its GI50 is 6.94 µM.

What about the TGI [6] of the same compound?
Its TGI is 22.9 µM.

What about the GI50 [7] of the same compound?
The GI50 was 15.6 µM.

And the TGI [7]?
The TGI was 34.9 µM.

And the GI50 [8]?
Its GI50 is 12.3 µM.

And the TGI [8]?
Its TGI is 31.4 µM.

What about the GI50 [9] of the same compound?
Its GI50 is 12.5 µM.

And the TGI [9]?
Its TGI is 25 µM.

What about the GI50 [10] of the same compound?
The GI50 was 14.9 µM.

What about the TGI [10] of the same compound?
Its TGI is 30.3 µM.

And the GI50 [11]?
Its GI50 is 14.3 µM.

And the TGI [11]?
The TGI was 27.6 µM.

And the GI50 [12]?
Its GI50 is 11.1 µM.

What about the TGI [12] of the same compound?
Its TGI is 24.1 µM.

And the GI50 [13]?
The GI50 was 13.3 µM.

And the TGI [13]?
Its TGI is 43.8 µM.

What about the GI50 [14] of the same compound?
The GI50 was 16.9 µM.

And the TGI [14]?
Its TGI is 46.3 µM.

And the GI50 [15]?
Its GI50 is 9.06 µM.

What about the TGI [15] of the same compound?
Its TGI is 51.6 µM.

And the GI50 [16]?
The GI50 was 3.33 µM.

What about the TGI [16] of the same compound?
Its TGI is 12.3 µM.

What about the GI50 [17] of the same compound?
Its GI50 is 19 µM.

And the TGI [17]?
The TGI was 85.7 µM.

What about the GI50 [18] of the same compound?
Its GI50 is 13.9 µM.

And the TGI [18]?
The TGI was 40.1 µM.

What about the GI50 [19] of the same compound?
The GI50 was 14.1 µM.

What about the TGI [19] of the same compound?
The TGI was 37.9 µM.

And the GI50 [20]?
Its GI50 is 19.8 µM.

And the TGI [20]?
Its TGI is 65.8 µM.

What about the GI50 [21] of the same compound?
Its GI50 is 8.54 µM.

What about the TGI [21] of the same compound?
The TGI was 44.4 µM.

And the GI50 [22]?
The GI50 was 3.4 µM.

And the TGI [22]?
Its TGI is > 100 µM.

What about the GI50 [23] of the same compound?
The GI50 was 12.3 µM.

What about the TGI [23] of the same compound?
Its TGI is 36.1 µM.

What about the GI50 [24] of the same compound?
The GI50 was 10 µM.

What about the TGI [24] of the same compound?
Its TGI is 22.6 µM.

And the GI50 [25]?
The GI50 was 15.5 µM.

And the TGI [25]?
Its TGI is 28.9 µM.

What about the GI50 [26] of the same compound?
The GI50 was 13.3 µM.

What about the TGI [26] of the same compound?
Its TGI is 40.1 µM.

What about the GI50 [27] of the same compound?
Its GI50 is 17.1 µM.

What about the TGI [27] of the same compound?
Its TGI is 72.2 µM.

And the GI50 [28]?
The GI50 was 5.55 µM.

What about the TGI [28] of the same compound?
Its TGI is 66.4 µM.

What about the GI50 [29] of the same compound?
Its GI50 is 12.9 µM.

What about the TGI [29] of the same compound?
The TGI was 26.4 µM.

What about the GI50 [30] of the same compound?
Its GI50 is 20.8 µM.

What about the TGI [30] of the same compound?
The TGI was 36.8 µM.

What about the GI50 [31] of the same compound?
The GI50 was 14.2 µM.

And the TGI [31]?
Its TGI is 45.7 µM.

What about the GI50 [32] of the same compound?
The GI50 was 15.8 µM.

What about the TGI [32] of the same compound?
Its TGI is 31.8 µM.

And the GI50 [33]?
Its GI50 is 8.75 µM.

What about the TGI [33] of the same compound?
The TGI was 33.9 µM.

And the GI50 [34]?
The GI50 was 16.1 µM.

What about the TGI [34] of the same compound?
The TGI was 34.8 µM.

What about the GI50 [35] of the same compound?
The GI50 was 10.4 µM.

What about the TGI [35] of the same compound?
Its TGI is 25.3 µM.

And the GI50 [36]?
The GI50 was 14.3 µM.

And the TGI [36]?
Its TGI is 55.1 µM.

And the GI50 [37]?
Its GI50 is 13.7 µM.

What about the TGI [37] of the same compound?
Its TGI is 27.2 µM.

And the GI50 [38]?
The GI50 was 18.2 µM.

What about the TGI [38] of the same compound?
The TGI was 33.9 µM.

What about the GI50 [39] of the same compound?
Its GI50 is 3.09 µM.

What about the TGI [39] of the same compound?
Its TGI is 13.3 µM.

And the GI50 [40]?
The GI50 was 27.8 µM.

What about the TGI [40] of the same compound?
Its TGI is 48.5 µM.

And the GI50 [41]?
Its GI50 is 8.46 µM.

And the TGI [41]?
Its TGI is > 100 µM.

And the GI50 [42]?
Its GI50 is 3.62 µM.

What about the TGI [42] of the same compound?
The TGI was 14.5 µM.

And the GI50 [43]?
The GI50 was 15.6 µM.

And the TGI [43]?
Its TGI is 29.7 µM.

And the GI50 [44]?
The GI50 was 6.37 µM.

And the TGI [44]?
Its TGI is > 100 µM.

What about the GI50 [45] of the same compound?
The GI50 was 3.7 µM.

And the TGI [45]?
Its TGI is 16.1 µM.

And the GI50 [46]?
Its GI50 is 16.6 µM.

What about the TGI [46] of the same compound?
Its TGI is 37.7 µM.

What about the GI50 [47] of the same compound?
The GI50 was 11.2 µM.

What about the TGI [47] of the same compound?
Its TGI is 25.9 µM.

What about the GI50 [48] of the same compound?
Its GI50 is 5.08 µM.

And the TGI [48]?
The TGI was > 100 µM.

What about the GI50 [49] of the same compound?
The GI50 was 10.5 µM.

And the TGI [49]?
Its TGI is 22.4 µM.

What about the GI50 [50] of the same compound?
The GI50 was 6.26 µM.

What about the TGI [50] of the same compound?
The TGI was 26.5 µM.

And the GI50 [51]?
Its GI50 is 19.4 µM.

And the TGI [51]?
The TGI was 47.8 µM.

What about the GI50 [52] of the same compound?
The GI50 was 2.28 µM.

What about the TGI [52] of the same compound?
Its TGI is 6.83 µM.

What about the GI50 [53] of the same compound?
Its GI50 is 10.9 µM.

What about the TGI [53] of the same compound?
Its TGI is 30.1 µM.

And the GI50 [54]?
Its GI50 is 16.1 µM.

And the TGI [54]?
Its TGI is 47.5 µM.

And the GI50 [55]?
Its GI50 is 4.28 µM.

What about the TGI [55] of the same compound?
The TGI was > 100 µM.

And the GI50 [56]?
Its GI50 is 3.09 µM.

What about the TGI [56] of the same compound?
The TGI was > 100 µM.

What about the GI50 [57] of the same compound?
The GI50 was 15.6 µM.

What about the TGI [57] of the same compound?
The TGI was 30.2 µM.

What about the GI50 [58] of the same compound?
Its GI50 is 16.5 µM.

What about the TGI [58] of the same compound?
Its TGI is 36.7 µM.
